Assay results taken from US20010051618A1 (priority 2000, published 2001).

Tests used:
kainate receptor = details: rat; Narita et al. 1993; cited from earlier work
[1] = test system: poriomaniac behavior of dog; test: Night activity of a demented dog with poriomania, recorded by CCD camera (Example 5); format: in vivo
Protocol: A male Pomeranian of 11 years old was used. The dog was established to have been demented and to have suffered from poriomania. About 200 g of a canned feed for dogs (Maintenance Canned Beef available from Nippon Hills Colgate Company) per day was fed to this animal in two portions in the morning and evening. On the other hand, water was available ad libitum.
The experiment was conducted in the laboratory under controlled conditions of room temperature of about 22° C. The cage (150 cm×90 cm) was illuminated by infrared light and the activity of the experimental animal in the night was detected by a monochrome CCD camera. The traces of activity were recorded on a microcomputer every 10 minutes. The traces were recorded for 2 days before treatment, after the animal was maintained and acclimatized to the conditions, and the records were used as the pre-treatment data. The data recording started at about 18:00 and the activity was recorded for 800 minutes.
The migration time is the time of the migration of the animal during the experiment. The migration length is the distance of migration of the animal during the experiment. The start of poriomaniac behavior was defined as the start of migration came after the quiescent state of not less than 10 minutes and the end of the poriomaniac behavior was defined as the stop of migration which was confirmed to be maintained for […] 10 minutes. One incident of the poriomaniac behavior was defined as the behavior from the start to the end of the aforementioned migration. One episode means one incident of the poriomaniac behavior.

[2] = General symptoms in the similar dog experiment (Example 5); format: in vivo; details: similar experiment with GABA
[3] = test system: rat's running activity in the night; test: Running-wheel activity in the night after intraperitoneal administration (Example 1); format: in vivo; details: ip, rats
Protocol: Rats (Wistar-Imamichi; 7-week-old) were kept in a cage equipped with a running wheel. The animals were kept under such lighting conditions that the lighting was initiated at 7:00 and it was stopped at 19:00, while the animals were allowed to freely eat diet and drink water. They were kept over 3 weeks without subjecting them to any treatment or they were not subjected to any treatment until they sufficiently habituated to the keeping environment or the cage.
These animals were treated by intraperitoneal administration of GABAB receptor agonist, SKF97541, in an amount of 1.0 mg/kg or 0.5 mg/kg at around 18:00. A group of these animals to which physiological saline had separately been administered was used as a control group. Regarding the quantity of running, the counts detected by a sensor equipped with a running wheel were inputted to a computer at intervals of 30 minutes to thus evaluate the accumulated counts in the night, which was defined to be the quantity of acts in the night. Thus, the relative rate of the accumulated count observed for the individual animal was calculated while the accumulated count observed for each animal prior to the treatment was assumed to be 1.

[4] = test system: intentional motions of rats; test: Forced swimming test, strokes by the forelimbs (Example 2); format: in vivo, rat; details: 0.5 mg/kg intraperitoneal, 30 minutes to 3 hours after administration, versus saline control, FIG. 2
Protocol: A GABAB receptor agonist, SKF97541, was intraperitoneally administered to rats, which had been kept under the same conditions used in Example 1, in an amount of 0.5 mg/kg and these animals were put in water maintained at a temperature ranging from 35 to 37° C. after 30 minutes to 3 hours from the administration of the […]. […] The rats were forced to swim in the pool to determine the number of strokes by the forelimbs of these animals per 5 minutes. A group of these animals to which physiological saline had separately been administered was used as a control group.

[5] = 150 mg powdered GABA in food at 18:00, post-treatment, 800 minutes recording

## O=C1N=c2cc([N+](=O)[O-])c([N+](=O)[O-])cc2=NC1=O [DNQX, 6,7-dinitroquinoxaline-2,3-dione]
Kainate receptor
  inhibition of running activity induced by kainate: inhibited

## NCCCC(=O)O [GABA, γ-aminobutyric acid]
[1]; 150 mg of GABA
  change in each parameter compared to pre-treatment data: significant decrease
[1]; [5]
  mean duration time of each episode: 0.7 min
  migration length: 44.7 cm
  migration time: 1.4 min
  number of episodes: 2
[2]
  general symptoms: no particular notable events were observed

## CP(=O)(O)CCCN [SKF97541, 3-aminopropyl (methyl) phosphinic acid]
[3]; 0.5 mg/kg intraperitoneal at around 18:00, FIG. 1, read-out: inhibitory effect on quantity of running activity in the night, relative to the control group
  inhibition at 0.5 mg/kg: 40 to 60%
[3]; 1.0 mg/kg intraperitoneal at around 18:00, estimated, FIG. 1, read-out: inhibitory effect on quantity of running activity in the night, relative to the control group
  inhibition at 1 mg/kg: ~70%
[4]
  number of strokes by the forelimbs per 5 minutes: not reduced

## C=C(C)[C@H]1CN[C@H](C(=O)O)[C@H]1CC(=O)O [kainate]
Kainate receptor
  induction of running activity: induced
